The results in this text go back to PubChem BioAssay (NCI).

Common to all, as to assay: NCI-60 cell line screen, 48 h
Assay [1] concerns 786-0 renal.
In assay [2] the test system is A549 NSCLC.
Assay [3] relates to HL-60(TB) leukemia.
Assay [4] relates to HT29 colon.
Assay [5] relates to NCI-H226 lung.
In assay [6] the test system is NCI-H522 lung.
Assay [7] concerns OVCAR-5 ovarian.
The subject of assay [8] is SK-MEL-2 melanoma.
Assay [9] relates to SK-MEL-5 melanoma.
The test system of assay [10] is MDA-MB-435.

Values joined by “and” are separate entries in the source; they are usually repeats but may differ in a detail not shown here. Equal values may be shown once.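 Where inhibition never reached the appropriate level, the endpoint shown equals the highest concentration tested. Otherwise, values were interpolated linearly from a five-concentration, 48-hour dose response in 96-well plates. GI50 is the concentration that inhibits growth by half. TGI denotes the concentration required for complete inhibition of growth.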 A value given as a limit tells only on which side of the number the result lay.

For `C=C(c1ccc(OC)c(/C=C/C(=O)c2cc(OC)c(OC)c(OC)c2)c1)c1cc(OC)c(OC)c(OC)c1`, the GI50 in assay [1] is 1.68 µM; in assay [2], 1.81 µM; in [3], 2.03 µM; in assay [4], 0.628 µM; in [5], 1.41 µM; in assay [6], 1.1 µM. Besides, the GI50 in [7] is 2.07 µM; in assay [8], 2.58 µM; in assay [9], 1.18 µM. Further, the TGI in [1] is 3.7 µM; in assay [2] it was 4.51 µM; in assay [3], 13.4 µM; in assay [4] it was 3.15 µM; in [5], 3.29 µM; in assay [6], 5.63 µM. The TGI came out at 6.14 µM in [7], 12.4 µM in assay [8] and 2.5 µM in assay [9].
For `Cc1cc(NCCCNc2ccnc3cc(Cl)ccc23)nc(Nc2ccc(C(=O)N3CCCCC3)cc2)n1`, the GI50 in assay [1] was 1.83 µM; in assay [2], 3.56 µM; in assay [4], 2.33 µM; in assay [10] it was 1.71 µM; in assay [5], 21.8 µM; in [6] it was 2.19 µM. Further, the GI50 is 4.5 µM in assay [7], 2.17 µM in [8] and 1.93 µM in assay [9]. In addition, the TGI in assay [1] came out at 3.72 µM; in assay [2] it was 10.4 µM; in assay [4], 7.2 µM; in [10], 3.2 µM; in assay [5] it was 36.9 µM; in [6], 4.45 µM. In addition, the values for the TGI in assay [7], in assay [8] and in assay [9] were 18.5 µM, 4.29 µM and 3.34 µM, respectively.
As for `CCCCCCCCCCCCCCCCCc1cc(Cl)nc(Cl)n1`, the TGI in assay [1], in [2], in assay [3], in assay [4], in [10] and in assay [5] was over 100 µM in each case. In addition, the TGI in assay [7], in assay [8] and in assay [9] was over 100 µM in each case.
Consider `Clc1cc(Cl)cc(C2SCc3nc4ccccc4n32)c1` (stereo not given), for which the TGI in assay [1] was determined as 32.4 µM; in assay [2] it was 76.1 µM; in [3] it was 53.4 µM; in assay [4], 25.2 µM; in assay [5], 37.3 µM; in assay [6], 39.3 µM. Moreover, the TGI in assay [7] is 71.4 µM; in assay [8], 46.1 µM; in [9], 25.7 µM.
With `CO[C@H](C(=O)O[C@H]1C(=O)N2CCC3CCC1C32C)c1ccccc1` (stereo not given in full), the TGI in assay [1], in [2], in assay [3], in assay [4], in assay [5] and in assay [6] was over 100 µM each time. The TGI in assay [7], in [8] and in assay [9] was over 100 µM in each case.
Take `Oc1ccccc1/C=N/Nc1nc2ccccc2s1`: the GI50 is 7.96 µM in assay [1]; 6.52 µM in assay [2]; 21.1 µM in assay [4]; over 100 µM in [10]; 10.7 µM in assay [5]; 4.74 µM in assay [6]. The GI50 in assay [7] is over 100 µM; in assay [8], 8.74 µM; in assay [9], 7.36 µM. The TGI in assay [1] is 89 µM; in assay [2] it was over 100 µM; in [4], over 100 µM; in assay [10], over 100 µM; in assay [5], over 100 µM; in [6], over 100 µM. Further, the TGI in assay [7], in assay [8] and in assay [9] was over 100 µM each time.
As to `Cc1cc(Cl)ccc1NC(=O)C1C(=O)C(=O)N(c2ccc(Cl)cc2C)C1=O` (stereo not given), the TGI in assay [1], in assay [2], in assay [3], in assay [4], in assay [5] and in assay [6] was over 100 µM in each case. For the same molecule, the TGI in assay [7], in assay [8] and in [9] was over 100 µM each time.
As to `CC[C@@]1(O)C(=O)OCc2c1cc1n(c2=O)Cc2cc3c([N+](=O)[O-])c(O)ccc3nc2-1`, the GI50 in assay [1] is 0.0477 µM; in [2], 0.426 µM; in assay [3], 0.13 µM; in assay [4], 2.64 µM; in assay [5], 1.29 µM; in assay [6], 0.132 µM. The GI50 is 0.879 µM in assay [7], 2.27 µM in assay [8] and 0.459 µM in assay [9]. For the same molecule, the TGI was 0.432 µM in assay [1]; 18.3 µM in [2]; 1.3 µM in [3]; over 100 µM in assay [4]; 3.07 µM in [6]; 11.6 µM in assay [7]. For the same molecule, the TGI in [8] worked out at 6.67 µM; in assay [9], 2.39 µM.
Turning to `CC1OC(OC23C(=O)CC(C)(O)CC2(O)C=CC2=C3C(=O)c3ccc(C4CC(OC5CCC(OC6CC(O)C(O)C(C)O6)C(C)O5)C(O)C(C)O4)c(O)c3C2=O)CCC1O` (stereo not given), the TGI in assay [1] is 31.7 µM and 29.5 µM; in [2] it was 82.1 µM and 65.2 µM; in assay [3], over 100 µM; in assay [4], 36.1 µM and 27.8 µM; in assay [5] it was 38.5 µM and 35.5 µM; in [6], 3.83 µM and 3.5 µM. For the same molecule, the TGI in assay [7] is 33.1 µM and 34.9 µM; in assay [8], 31.2 µM and 30.5 µM; in [9] it was 33.3 µM and 29.7 µM.
`Cc1ccc2oc(=O)cc(CC(=O)O)c2c1`: the TGI in assay [1], in [2], in assay [3], in assay [4], in [5] and in [6] was over 100 µM in each case. Also, the TGI in assay [7], in [8] and in assay [9] was over 100 µM in each case.
